Source: ChEMBL document CHEMBL4406885, “Effect of self-assembly on antimicrobial activity of double-chain short cationic lipopeptides” (Bioorg Med Chem, 2019)
Values after ≈ are worked out from the molar mass of the structure shown. Active and inactive are the calls of the source. The calls are words filed in the database; no cut-off is given here. Where a SMILES comes first, the peptide text is derived from it. [ ]: non-standard residue; d: D form. The star is where a group is joined. ξ: configuration not given here. Palmitoyl = CCCCCCCCCCCCCCCC(=O)*; Myristoyl = CCCCCCCCCCCCCC(=O)*; Lauroyl = CCCCCCCCCCCC(=O)*; Decanoyl = CCCCCCCCCC(=O)*; ξDab = NCCC(N)C(=O)O; ξDap = NCC(N)C(=O)O

Assays:
[1] = test system: Staphylococcus epidermidis; assay: Antibacterial activity against Staphylococcus epidermidis PCM 2118 assessed as growth inhibition measured after 18 hrs by CLSI based method; type: functional; settings: PCM 2118, 18 h
[2] = test system: Lipid bilayer; assay: Binding affinity to POPC large unilamellar vesicle at 0.2 mM by ITC method
[3] = test system: Pseudomonas aeruginosa; assay: Antibacterial activity against Pseudomonas aeruginosa ATCC 9027 assessed as growth inhibition measured after 18 hrs by CLSI based method; type: functional; settings: ATCC 9027, 18 h
[4] = test system: Candida albicans; assay: Antifungal activity against Candida albicans ATCC 10231 assessed as growth inhibition measured after 48 hrs by CLSI based method; type: functional; settings: ATCC 10231, 48 h
[5] = Surfactant-like property of compound at CMC; type: physicochemical
[6] = Critical micelle concentration of compound by ITC method; type: physicochemical
[7] = test system: Escherichia coli; assay: Antibacterial activity against Escherichia coli ATCC 25922 assessed as growth inhibition measured after 18 hrs by CLSI based method; type: functional; settings: ATCC 25922, 18 h
[8] = test system: Staphylococcus aureus; assay: Antibacterial activity against Staphylococcus aureus ATCC 25923 assessed as growth inhibition measured after 18 hrs by CLSI based method; type: functional; settings: ATCC 25923, 18 h
[9] = Critical micelle concentration of compound; type: physicochemical
[10] = test system: Lipid bilayer; assay: Binding affinity to DPPG large unilamellar vesicles at 298 kelvin by ITC method
[11] = test system: Lipid bilayer; assay: Binding affinity to POPG large unilamellar vesicle at 298 kelvin by ITC method
[12] = test system: Lipid bilayer; assay: Binding affinity to DPPG large unilamellar vesicles at 323 kelvin by ITC method
[13] = test system: HaCaT; assay: Cytotoxicity against human HaCaT cells assessed as growth inhibition measured after 24 hrs by MTT assay; type: cell-based
[14] = Hemolytic activity in human RBC induction of hemolysis at 128 ug/ml at MIC after 60 mins by spectrophotometric method relative to control; type: cell-based, Erythrocyte; settings: human red blood cells (erythrocytes), read-out: Activity
[15] = Binding affinity to DPPG lipid assessed as change in melting temperature at 10:1 molar ratio of lipid:lipopeptide by FTIR analysis

In the case of `CCCCCCCCCCCCCC(=O)NCCC(NC(=O)CCCCCCCCCCCCC)C(=O)N[C@@H](CCCCN)C(=O)N[C@@H](CCCCN)C(=O)N[C@@H](CCCCN)C(N)=O` (some centres not stated) (Myristoyl-[ξDab](Myristoyl)KKK-NH2), the MIC [1] is reported as greater than 512 µg/mL, the Activity [2] is reported as “inactive” and the MIC [3] is reported as greater than 512 µg/mL. It also gave an MIC [4] greater than 512 µg/mL, a gammaCMC [5] of 46.9 mN/meter and a CMC [6] of 0.28 to 0.53 mM. For the same molecule, the MIC [7] was greater than 512 µg/mL, the MIC [8] was greater than 512 µg/mL and the CMC [9] was 0.45 mM.

For `CCCCCCCCCC(=O)NCC(NC(=O)CCCCCCCCC)C(=O)O` (configuration not stated), the pK [10] was 6.59 to 7.4, the pK [11] was 6.83 to 50.7 and the Activity [2] was “inactive”. For the same molecule, the pK [12] was 4.5.

In the case of `CCCCCCCCCCCC(=O)NCCCC[C@H](NC(=O)CCCCCCCCCCC)C(=O)N[C@@H](CCCCN)C(=O)N[C@@H](CCCCN)C(=O)N[C@@H](CCCCN)C(N)=O` (Lauroyl-K(Lauroyl)KKK-NH2), the MIC [1] is reported as 16 µg/mL (≈ 17.9 µM), the Activity [2] is reported as “inactive” and the MIC [3] is reported as 256 µg/mL (≈ 286 µM). It also gave an MIC [4] of 8 µg/mL (≈ 8.95 µM), an IC50 [13] of 31.1 µg/mL (≈ 34.8 µM) and an MIC [7] of 128 µg/mL (≈ 143 µM). The MIC [8] was 64 µg/mL (≈ 71.6 µM).

In the case of `CCCCCCCCCCCCCCCC(=O)NCC(NC(=O)CCCCCCCCCCCCCCC)C(=O)N[C@@H](CCCCN)C(=O)N[C@@H](CCCCN)C(=O)N[C@@H](CCCCN)C(N)=O` (some centres not stated) (Palmitoyl-[ξDap](Palmitoyl)KKK-NH2), the MIC [1] is reported as 512 µg/mL (≈ 531 µM), the Activity [2] is reported as “inactive” and the MIC [3] is reported as greater than 512 µg/mL. It also gave an MIC [4] greater than 512 µg/mL, a gammaCMC [5] of 45.9 mN/meter and a CMC [6] of 0.35 to 0.7 mM. It also gave an MIC [7] greater than 512 µg/mL, an MIC [8] greater than 512 µg/mL and a CMC [9] of 0.32 mM.

In the case of `CCCCCCCCCCCC(=O)NCCC(NC(=O)CCCCCCCCCCC)C(=O)N[C@@H](CCCCN)C(=O)N[C@@H](CCCCN)C(=O)N[C@@H](CCCCN)C(N)=O` (some centres not stated) (Lauroyl-[ξDab](Lauroyl)KKK-NH2), the MIC [1] is reported as 8 µg/mL (≈ 9.23 µM), the Activity [2] is reported as “inactive” and the MIC [3] is reported as 64 µg/mL (≈ 73.9 µM). The MIC [4] was 16 µg/mL (≈ 18.5 µM), the gammaCMC [5] was 40 mN/meter and the hemolysis at 1 h, 128 ug/ml [14] was 13%. For the same molecule, the IC50 [13] was 30.7 µg/mL (≈ 35.4 µM), the CMC [6] was 1.34 mM and the MIC [7] was 64 µg/mL (≈ 73.9 µM). For the same molecule, the MIC [8] was 64 µg/mL (≈ 73.9 µM) and the CMC [9] was 1.25 mM.

With `CCCCCCCCCCCCCCCC(=O)NCC(NC(=O)CCCCCCCCCCCCCCC)C(=O)O` (configuration not stated) the pK [10] was 4.26 to 6.99, the Activity [2] was “inactive” and the pK [12] was “inactive”.

For `CCCCCCCCCCCC(=O)NCC(NC(=O)CCCCCCCCCCC)C(=O)O` (configuration not stated), the pK [10] was 7.18, the pK [11] was 6.34 and the Activity [2] was “inactive”. The pK [12] was 5.37.

In the case of `CCCCCCCCCC(=O)NCCCC[C@H](NC(=O)CCCCCCCCC)C(=O)N[C@@H](CCCCN)C(=O)N[C@@H](CCCCN)C(=O)N[C@@H](CCCCN)C(N)=O` (Decanoyl-K(Decanoyl)KKK-NH2), the MIC [1] is reported as 2 µg/mL (≈ 2.39 µM), the Activity [2] is reported as “inactive” and the MIC [3] is reported as 8 µg/mL (≈ 9.54 µM). For the same molecule, the MIC [4] was 8 µg/mL (≈ 9.54 µM), the IC50 [13] was 18.8 µg/mL (≈ 22.4 µM) and the MIC [7] was 16 µg/mL (≈ 19.1 µM). For the same molecule, the MIC [8] was 64 µg/mL (≈ 76.4 µM).

For `CCCCCCCCCCCC(=O)NCCC(NC(=O)CCCCCCCCCCC)C(=O)O` (configuration not stated), the pK [10] was 5.14 to 7.38, the pK [11] was 4.1 and the Activity [2] was “inactive”. It also gave a pK [12] of 4.52.

In the case of `CCCCCCCCCCCCCCCC(=O)NCCCC[C@H](NC(=O)CCCCCCCCCCCCCCC)C(=O)N[C@@H](CCCCN)C(=O)N[C@@H](CCCCN)C(=O)N[C@@H](CCCCN)C(N)=O` (Palmitoyl-K(Palmitoyl)KKK-NH2), the MIC [1] is reported as greater than 512 µg/mL, the Activity [2] is reported as “inactive” and the MIC [3] is reported as greater than 512 µg/mL. For the same molecule, the MIC [4] was greater than 512 µg/mL, the MIC [7] was greater than 512 µg/mL and the MIC [8] was greater than 512 µg/mL.

For `CCCCCCCCCC(=O)NCCC(NC(=O)CCCCCCCCC)C(=O)O` (configuration not stated), the pK [10] was 5.76 to 7.37, the Activity [2] was “inactive” and the pK [12] was 5.06.

For `CCCCCCCCCCCC(=O)NCC(NC(=O)CCCCCCCCCCC)C(=O)N[C@@H](CCCCN)C(=O)N[C@@H](CCCCN)C(=O)N[C@@H](CCCCN)C(N)=O` (some centres not stated) (Lauroyl-[ξDap](Lauroyl)KKK-NH2), the MIC [1] was 8 µg/mL (≈ 9.39 µM), the Activity [2] was “inactive” and the MIC [3] was 128 µg/mL (≈ 150 µM). It also gave an MIC [4] of 8 µg/mL (≈ 9.39 µM), a gammaCMC [5] of 41.3 mN/meter and a hemolysis at 1 h, 128 ug/ml [14] of 50%. It also gave an IC50 [13] of 43.3 µg/mL (≈ 50.8 µM), a CMC [6] of 1.53 mM and an MIC [7] of 256 µg/mL (≈ 300 µM). It also gave an MIC [8] of 32 µg/mL (≈ 37.5 µM) and a CMC [9] of 1.41 mM.

With `CCCCCCCCCC(=O)NCCC(NC(=O)CCCCCCCCC)C(=O)N[C@@H](CCCCN)C(=O)N[C@@H](CCCCN)C(=O)N[C@@H](CCCCN)C(N)=O` (some centres not stated) (Decanoyl-[ξDab](Decanoyl)KKK-NH2) the MIC [1] was 4 µg/mL (≈ 4.94 µM), the ΔTm [15] was 2.5 to 3 °C and the Activity [2] was “inactive”. It also gave an MIC [3] of 8 µg/mL (≈ 9.87 µM), an MIC [4] of 16 µg/mL (≈ 19.7 µM) and a gammaCMC [5] of 41.5 mN/meter. For the same molecule, the IC50 [13] was 1.16 µg/mL (≈ 1.43 µM), the MIC [7] was 16 µg/mL (≈ 19.7 µM) and the MIC [8] was 8 µg/mL (≈ 9.87 µM). For the same molecule, the CMC [9] was 3.16 mM.

With `CCCCCCCCCCCCCCCC(=O)NCCC(NC(=O)CCCCCCCCCCCCCCC)C(=O)N[C@@H](CCCCN)C(=O)N[C@@H](CCCCN)C(=O)N[C@@H](CCCCN)C(N)=O` (some centres not stated) (Palmitoyl-[ξDab](Palmitoyl)KKK-NH2) the MIC [1] was 256 µg/mL (≈ 262 µM), the Activity [2] was “inactive” and the MIC [3] was greater than 512 µg/mL. For the same molecule, the MIC [4] was greater than 512 µg/mL, the gammaCMC [5] was 41.5 mN/meter and the CMC [6] was 0.06 to 0.22 mM. For the same molecule, the MIC [7] was greater than 512 µg/mL, the MIC [8] was greater than 512 µg/mL and the CMC [9] was 0.32 mM.

With `CCCCCCCCCCCCCC(=O)NCC(NC(=O)CCCCCCCCCCCCC)C(=O)N[C@@H](CCCCN)C(=O)N[C@@H](CCCCN)C(=O)N[C@@H](CCCCN)C(N)=O` (some centres not stated) (Myristoyl-[ξDap](Myristoyl)KKK-NH2) the MIC [1] was 128 µg/mL (≈ 141 µM), the Activity [2] was “inactive” and the MIC [3] was greater than 512 µg/mL. It also gave an MIC [4] greater than 512 µg/mL, a gammaCMC [5] of 46.1 mN/meter and a CMC [6] of 0.35 mM. For the same molecule, the MIC [7] was greater than 512 µg/mL, the MIC [8] was greater than 512 µg/mL and the CMC [9] was 0.35 mM.

For `CCCCCCCCCC(=O)NCC(NC(=O)CCCCCCCCC)C(=O)N[C@@H](CCCCN)C(=O)N[C@@H](CCCCN)C(=O)N[C@@H](CCCCN)C(N)=O` (some centres not stated) (Decanoyl-[ξDap](Decanoyl)KKK-NH2), the MIC [1] was 4 µg/mL (≈ 5.02 µM), the ΔTm [15] was 2.5 to 3 °C and the Activity [2] was “inactive”. For the same molecule, the MIC [3] was 4 µg/mL (≈ 5.02 µM), the MIC [4] was 16 µg/mL (≈ 20.1 µM) and the gammaCMC [5] was 42.5 mN/meter. The IC50 [13] was 75 µg/mL (≈ 94.2 µM), the MIC [7] was 8 µg/mL (≈ 10 µM) and the MIC [8] was 2 µg/mL (≈ 2.51 µM). It also gave a CMC [9] of 3.24 mM.

With `CCCCCCCCCCCCCC(=O)NCCCC[C@H](NC(=O)CCCCCCCCCCCCC)C(=O)N[C@@H](CCCCN)C(=O)N[C@@H](CCCCN)C(=O)N[C@@H](CCCCN)C(N)=O` (Myristoyl-K(Myristoyl)KKK-NH2) the MIC [1] was 256 µg/mL (≈ 269 µM), the Activity [2] was “inactive” and the MIC [3] was 512 µg/mL (≈ 539 µM). For the same molecule, the MIC [4] was 512 µg/mL (≈ 539 µM), the MIC [7] was greater than 512 µg/mL and the MIC [8] was greater than 512 µg/mL.
